Measured values reported in the supplement of paper PMC11451515.

Tested on: NOMO1
Test: cell viability relative to DMSO control; higher = less cytotoxic
Conditions: 48 h
Summary of the method: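 NOMO1, SEM and P12-Ichikawa leukemia cells spent at least four passages adapting to each medium before use. They were seeded at 500 cells/well (NOMO1, SEM) or 1000 cells/well (P12-Ichikawa) in 5 μl in 1536-well plates and pin-dosed with library compounds in DMSO at 11 threefold steps from 47 μM down to 0.79 nM. After 48 h at 37°C, CellTiter-Glo One luminescence was read. Viability is reported as a percentage of the DMSO wells on each plate, with cell-free wells as background.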

[1] = HPLM + 10% dialyzed FBS, 0.000781 µM
[2] = HPLM + 10% dialyzed FBS, 0.00234 µM
[3] = HPLM + 10% dialyzed FBS, 0.00702 µM
[4] = HPLM + 10% dialyzed FBS, 0.0211 µM
[5] = HPLM + 10% dialyzed FBS, 0.0632 µM
[6] = HPLM + 10% dialyzed FBS, 0.19 µM
[7] = HPLM + 10% dialyzed FBS, 0.569 µM
[8] = HPLM + 10% dialyzed FBS, 1.71 µM
[9] = HPLM + 10% dialyzed FBS, 5.12 µM
[10] = HPLM + 10% dialyzed FBS, 15.4 µM
[11] = HPLM + 10% dialyzed FBS, 46.1 µM
[12] = RPMI 5 mM glucose + 10% FBS, 0.000781 µM
[13] = RPMI 5 mM glucose + 10% FBS, 0.00234 µM
[14] = RPMI 5 mM glucose + 10% FBS, 0.00702 µM
[15] = RPMI 5 mM glucose + 10% FBS, 0.0211 µM
[16] = RPMI 5 mM glucose + 10% FBS, 0.0632 µM
[17] = RPMI 5 mM glucose + 10% FBS, 0.19 µM
[18] = RPMI 5 mM glucose + 10% FBS, 0.569 µM
[19] = RPMI 5 mM glucose + 10% FBS, 1.71 µM
[20] = RPMI 5 mM glucose + 10% FBS, 5.12 µM
[21] = RPMI 5 mM glucose + 10% FBS, 15.4 µM
[22] = RPMI 5 mM glucose + 10% FBS, 46.1 µM
[23] = RPMI 5 mM glucose + 10% dialyzed FBS, 0.000781 µM
[24] = RPMI 5 mM glucose + 10% dialyzed FBS, 0.00234 µM
[25] = RPMI 5 mM glucose + 10% dialyzed FBS, 0.00702 µM
[26] = RPMI 5 mM glucose + 10% dialyzed FBS, 0.0211 µM
[27] = RPMI 5 mM glucose + 10% dialyzed FBS, 0.0632 µM
[28] = RPMI 5 mM glucose + 10% dialyzed FBS, 0.19 µM
[29] = RPMI 5 mM glucose + 10% dialyzed FBS, 0.569 µM
[30] = RPMI 5 mM glucose + 10% dialyzed FBS, 1.71 µM
[31] = RPMI 5 mM glucose + 10% dialyzed FBS, 5.12 µM
[32] = RPMI 5 mM glucose + 10% dialyzed FBS, 15.4 µM
[33] = RPMI 5 mM glucose + 10% dialyzed FBS, 46.1 µM

Compound	cell viability [1]	cell viability [2]	cell viability [3]	cell viability [4]	cell viability [5]	cell viability [6]	cell viability [7]	cell viability [8]	cell viability [9]	cell viability [10]	cell viability [11]	cell viability [12]	cell viability [13]	cell viability [14]	cell viability [15]	cell viability [16]	cell viability [17]	cell viability [18]	cell viability [19]	cell viability [20]	cell viability [21]	cell viability [22]	cell viability [23]	cell viability [24]	cell viability [25]	cell viability [26]	cell viability [27]	cell viability [28]	cell viability [29]	cell viability [30]	cell viability [31]	cell viability [32]	cell viability [33]
CC(C)NCC(O)c1ccc(NS(C)(=O)=O)cc1 (configuration not stated)	110%	114%	110%	120%	126%	119%	101%	113%	109%	102%	111%	90.5%	91.9%	104%	86.2%	90.7%	98.6%	89.4%	89%	94.1%	104%	94.2%	87.9%	103%	110%	102%	105%	124%	102%	94.1%	102%	98.1%	117%
CN(C)CCCNC(=O)c1ccc(-c2cc(O)c3ncccc3c2)cc1	113%	110%	109%	107%	105%	85.9%	117%	98.8%	114%	86.7%	60.1%	89.1%	89.5%	96.2%	99.5%	103%	84%	86.1%	87.7%	97.2%	85.9%	82.4%	96.3%	94.6%	112%	98.1%	102%	112%	94.2%	101%	106%	91.1%	62.8%
CC(C)c1ccccc1Cc1cc(C(=O)Nc2ccc([S+](=O)([O-])c3ccccc3C(C)(C)C)cc2)c(O)c(O)c1O	–	–	–	–	–	–	–	–	–	–	–	102%	116%	101%	102%	114%	117%	102%	109%	105%	97.4%	87.7%	103%	117%	111%	115%	108%	118%	104%	118%	96.8%	97%	104%
COC[C@H]1OC(=O)C2=COC3=C2[C@@]1(C)\C4=C(\[C@@H]5CC[C@H](O)[C@@]5(C)C[C@H]4OC(C)=O)C3=O	106%	112%	117%	111%	132%	134%	118%	113%	88.6%	93.1%	70.6%	98.9%	111%	117%	107%	123%	114%	117%	109%	110%	102%	87.6%	88.2%	103%	110%	106%	118%	126%	115%	119%	97.9%	94%	83.5%
O=[N+]([O-])c1cnc(Sc2nnc(O)n2-c2ccc3c(c2)OCCO3)s1	84.4%	73.6%	101%	102%	96.4%	92.3%	86.3%	96.1%	93.6%	6.33%	2.43%	81.7%	78.2%	95.3%	92%	85.2%	86.2%	82.8%	92.2%	84.7%	2.77%	2.27%	78.9%	96.3%	92%	97.1%	92.2%	98.9%	95.3%	89.9%	83.5%	6.45%	1.89%
C[C@@H]1CC[C@@]2(OC1)OC1CC3C4CC=C5CC(O)CCC5(C)C4CCC3(C)C1[C@@H]2C (some centres not stated)	95.6%	84.6%	105%	114%	113%	112%	116%	127%	117%	44.5%	16.5%	89.7%	87.3%	95%	95.3%	96%	90.6%	93%	98.5%	90.1%	48.5%	11.8%	90.6%	83.5%	97%	87.6%	87.4%	93.1%	91.9%	90.8%	88.3%	73.4%	29.1%
CCOC1=CC(=CC=C1C/2=N/[C@@](C)(C3=CC=C(Cl)C=C3)[C@](C)(N2C(=O)N4CCN(CC4)CC(=O)N5CCOCC5)C6=CC=C(Cl)C=C6)C(C)(C)C	–	–	–	–	–	–	–	–	–	–	–	93.3%	90.6%	96.3%	105%	112%	121%	98.6%	99.3%	102%	91.6%	97%	92.6%	113%	102%	102%	126%	120%	124%	100%	81.8%	90.1%	86.2%
CC(=O)[C@H]1CC[C@H]2[C@@H]3CCC4=CC(=O)CC[C@]4(C)[C@H]3CC[C@]12C	110%	122%	140%	136%	127%	120%	123%	133%	139%	115%	147%	116%	109%	122%	120%	116%	111%	114%	123%	128%	120%	133%	114%	121%	134%	134%	127%	135%	136%	141%	158%	140%	150%
